Reference: article PMC12814168, “Fast, Bright, and Reversible Fluorescent Labeling of Rhodamine-Binding Proteins” (Journal of the American Chemical Society, 2025)
Several values for one entry are separate records, joined by “and”; a condition that tells them apart may be missing. Equal entries are not always repeated. Where two headings read alike, the source gives them in different places.

Legend:
Rho-tag [1] = target: T1, Rho-tag (Chlorobaculum tepidum, UniProt Q8KFZ1, V17Q/Q25R/S33N/E36V/H40T/K51V/F62Y/M64F/S65D/A66M/G67E/E70D/V87I/G107D/D121K/F125Y/D126E/N138A/S152V); test: Fluorescence polarization with 0.5-20 nM dye (0.5 nM TMR in Figure S6 titrations) and serial protein dilutions in 50 mM HEPES, 50 mM NaCl, pH 7.3 with BSA, 25 °C, N at least 3.; type: binding; conditions: SD, n = 3; read-out: K D, other Rho-tag forms and JF549
T1 construct: gene CT0179; His10-TEV, recombinant from E. coli
Description: (§1) electroporation buffer, aliquoted (12 x 50 µL) on ice, and used immediately for electroporation with 1–5 µg DNA precipitated DNA. Cells were transferred to pre-chilled 0.2 cm gap electroporation cuvettes (Bio-Rad), and electroporated using a Gene Pulser Xcell (0.54 kV, 25 µF, infinite resistance, exponential decay). Cells were recovered in 2 mL YPDS at 30 °C, shaking for 1 h and afterwards expanded in 100 mL SDCAA at 30 °C for 2 days.
(§2) YSD protein expression, staining and sorting
(§3) SGCAA medium was used for induction and cells were grown at 30 °C, 250 rpm for 20 h. […] Samples were filtered through 5 mL round-bottom tubes with cell strainer caps (Falcon) and analyzed directly by FACS. […]
(§4) PMT voltages were set based on negative controls (no protein expression). Gates were applied for FSC, SSC, and fluorescence; signals >10³ (bilirubin or rhodamine dyes) were considered positive, background ≤10². […]
(§5) regions were amplified via KOD PCR reaction using primers containing unique barcodes (NGS adaptor ligation oligos, Eurofins Genomics) analyzed by NGS sequencing (Illumina technology, Eurofins Genomics). The NGS results were analyzed using a custom-build pipeline as described previously. Alternatively, plasmid DNA was transformation into E.cloni 10G and single colonies were analyzed by Sanger sequencing (Eurofins). […]
(§6) Stopped-flow kinetic fluorescence anisotropy […]
(§7) FA: fluorescence anisotropy, B: max. […]

[2] = Spectral properties: absolute quantum yield, extinction coefficient, brightness; type: physicochemical
Description: Serially fluorophore dilutions (0 – 3 μM) were prepared in activity buffer in presence or absence […]
Measurements were performed in 200 μL volumes in clear-bottom non-binding […]
recorded on the Spark20M microplate reader (Tecan). Following baseline correction, the absorbance was plotted against the dye concentration and the data were fitted linearly. Path […]
coefficients were calculated via the Lambert-Beer law (Equation 1).
Absolute quantum yields were determined at room temperature using a Hamamatsu Quantaurus-QY spectrometer (C11347 model). Rhodamine dyes (1 μM) were tested with and without excess […]
Samples were prepared in 800 μL glass vials
Quantum yield represent as mean ± standard deviation from three technical replicates. The brightness was thereafter calculated using Equation 5. […]

SiR-tag = target: T2, SiR-tag; test: Fluorescence intensity titration of dye (not given; JF646 by comparison with the text) with serial protein dilutions, 50 mM HEPES, 50 mM NaCl, pH 7.3 with BSA, 25 °C, n at least 3.; type: binding; conditions: SD, n = 3; read-out: KD [M] (Supplementary Table 10, replicates)
T2 construct: 2 + PROSS8 background combined with P57M/F58Y/R60L and G63N/F64K/D65N/M66H; His10-TEV
Text: (§8) Supplementary Table 10 | Characterization of putative SiR-tag variants. variant sequence KD [M] TM [° C]
(§9) Binding affinity determined via fluorescence intensity. *data from single replicate. If not stated otherwise, average data and standard deviation from n ≥ 3 individual replicates. Thermostability (T M) determined via […]
(§10) Supplementary Table 11 | Plasmids deposited on Addgene
(§11) Addgene ID plasmid insert expression organism
(§12) 249667 pcDNA5/FRT/TO H2B-Rho-tag-T2A-mEGFP mammalian cells
(§13) 249668 pcDNA5/FRT/TO H2B-SiR-tag-T2A-mEGFP mammalian cells
(§14) 249669 pcDNA5/FRT/TO CD86-Rho-tag mammalian cells
(§15) 249670 pcDNA5/FRT/TO CD86-SiR-tag mammalian cells
(§16) 249671 pTol2-HuC Rho-tag-Pro30-mEGFP-NLS3x zebrafish […]
as §3, §4
(§17) regions were amplified via KOD PCR reaction using primers containing unique barcodes (NGS adaptor ligation oligos, Eurofins Genomics) analyzed by NGS sequencing (Illumina technology, Eurofins Genomics). The NGS results were analyzed using a custom-build pipeline as described previously. […]

variant 2 = target: T3, variant 2; test: as above; type: binding; conditions: SD, n = 3; read-out: KD [M] (Supplementary Table 10, replicates)
T3 construct: Rho-tag background, loop2 library hit
Text: as §8, §9, §10, §11, §12, §13, §14, §15, §16, §3, §4, §17

BABP = target: T4, BABP (Gallus gallus, UniProt P80226); test: Fluorescence polarization at constant 20 nM TMR with serial protein dilutions (0-200 uM) in 50 mM HEPES, 50 mM NaCl, pH 7.3 with BSA, 25 °C, N at least 3.; type: binding; conditions: SD, n = 3
T4 construct: gene FABP1; recombinant from E. coli, N-terminal His10-TEV (pET51b), 15 kDa
T4 sequence (P80226 2-126): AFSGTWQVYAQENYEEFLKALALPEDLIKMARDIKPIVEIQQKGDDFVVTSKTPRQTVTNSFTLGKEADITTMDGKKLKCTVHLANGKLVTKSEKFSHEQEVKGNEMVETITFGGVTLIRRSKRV
Text: (§18) 1 Dye and candidate selection for the development of Rho-tags. A) Chemical structure of TMR and SiR and their corresponding HaloTag Ligand (HTL) derivatives. […] B) BOILED-Egg representation generated with SwissADME for molecules shown in (A). Correlation between the topological polar surface area (TPSA) and predicted water partitioning coefficient (WlogP). Gray area–predicted low passive absorption to the gastrointestinal (GI) system and limited brain access (BBB). Egg white–high probability for GI absorption. Egg yolk–high probability for BBB permeation. Blue dot–substrate is predicted to be actively exported from the central nervous system. […]
as §3, §4, §17

SAV2435 = target: T5, SAV2435 (Staphylococcus aureus, UniProt A0A0H3K0Y5); test: as above; type: binding; conditions: SD, n = 3
T5 construct: recombinant from E. coli, N-terminal His10-TEV (pET51b), 20 kDa
Text: as §18, §3, §4, §17

cpRho-tag = test: Fluorescence polarization with 0.5-20 nM dye (0.5 nM TMR in Figure S6 titrations) and serial protein dilutions in 50 mM HEPES, 50 mM NaCl, pH 7.3 with BSA, 25 °C, N at least 3.; type: binding; conditions: SD, n = 3; read-out: K D, other Rho-tag forms and JF549
Description: as §1, §2, §3, §4, §5, §6, §7

Rho-tag [3] = target: T6, Rho-tag (Chlorobaculum tepidum, UniProt Q8KFZ1, A66M/D121K/D126E/E36V/E70D/F125Y/F62Y/G107D/G67E/H40T/K51V/M64F/N138A/Q25R/S152V/S33N/S65D/V17Q/V87I); test: Fluorescence polarization at constant 20 nM TMR-linked ligand with serial Rho-tag dilutions (0-200 uM), pH 7.3, 25 °C, three independent measurements.; type: binding; conditions: SD, n = 3
T6 construct: gene CT0179; His10-TEV, recombinant from E. coli
Description: (§19) Binding affinities KD was derived from fluorescence polarization experiments at constant dye concentration
(§20) (20 nM) and serial protein dilutions (0 – 200 µM). Average data and standard deviation from three
independent measurements (N = 3).
(§21) Biochemical and Spectral Characterization
(§22) Serial protein dilutions (0 – 200 μM) were prepared in activity buffer and transferred to black flat bottom low-volume 384-well plates (Greiner). Rhodamine dyes (0.5 – 20 nM) were added in activity buffer containing 1% (w/v) bovine serum albumin (BSA, Fraction V, Roth) using a 384-channel VIAFLO pipettor (Integra) at a 1:1 mixing ratio.
(§23) JF 646) or fluorescence polarization (FP, all other dyes) measurements were conducted on a Spark20M microplate reader (Tecan) at 25 °C in technical triplicates. Excitation and emission settings are summarized in Method Table 5.
(§24) For data processing, technical triplicates were averaged and normalized between 0 ( i.e. free dye)
(§25) and 1 (fully bound dye). The dissociation constants KD were determined by fitting a single-site
binding model (Equation 2) to the data.
(§26) at least three independent experiments (N ≥ 3), unless otherwise mentioned.
(§27) between dyes or proteins, log 10 fold changes relative to a reference e.g., parental protein were
(§28) Y: fluorescence intensity [a.u.] or fluorescence polarization [mFP], A: min. FI / FP, B: max.
(§29) protein concentration [mol/L], h: Hill coefficient, K D: dissociation constant [mol/L].

Rho-tag [4] = target: T1, Rho-tag; test: as above; type: binding; conditions: SD, n = 3; read-out: KD [µM] (Supplementary Table 4)
Description: as §19, §20
independent measurements (N = 3).
as §21, §22, §23, §24, §25
binding model (Equation 2) to the data.
as §26, §27, §28, §29

[5] = with 20 µM Rho-tag (TMR, JF549) or SiR-tag (SiR, JF646)

T1 sequence (Q8KFZ1 entry or part of it with the stated changes): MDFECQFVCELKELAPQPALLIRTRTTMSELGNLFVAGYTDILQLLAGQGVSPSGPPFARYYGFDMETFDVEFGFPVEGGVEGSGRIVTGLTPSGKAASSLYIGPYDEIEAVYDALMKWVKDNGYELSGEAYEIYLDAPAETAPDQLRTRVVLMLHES
T5 sequence (A0A0H3K0Y5 entry or part of it): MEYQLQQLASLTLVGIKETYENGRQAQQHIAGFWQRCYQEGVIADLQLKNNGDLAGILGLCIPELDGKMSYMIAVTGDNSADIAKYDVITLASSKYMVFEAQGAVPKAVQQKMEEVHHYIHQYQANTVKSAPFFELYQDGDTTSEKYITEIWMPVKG
T6 sequence (Q8KFZ1 entry or part of it with the stated changes): as the sequence (Q8KFZ1 entry or part of it with the stated changes) above

## O=C1OC2(c3ccc(N4CCC4)cc3Oc3cc(N4CCC4)ccc32)c2ccccc21 [JF549, Janelia Fluor 549 (TMR derivative)]
Rho-tag [1]
  Kd: 4 nM

## O=C1OC2(c3ccc(N4CCC4)cc3Oc3cc(N4CCC4)ccc32)c2ccccc21 [JF549]
[2]
  Absolute quantum yield Φ: 0.844 ± 0.008
  Brightness ε × Φ: 128 ± 3
  Extinction coefficient ε: 152 ± 22
[2]; buffer
  Extinction coefficient ε: 101 ± 08 M-1cm-1 × 103
[2]; buffer (unbound dye)
  Absolute quantum yield Φ: 0.842 ± 0.012
[2]; [5]
  Absolute quantum yield Φ: 0.87 ± 0.02 and 0.871 ± 0.018
  Brightness ε × Φ: 105 ± 4 M-1cm-1 × 103
  Extinction coefficient ε: 121 ± 22 M-1cm-1 × 103

## C[Si]1(C)c2cc(N3CCC3)ccc2C2(OC(=O)c3ccccc32)c2ccc(N3CCC3)cc21 [JF646, Janelia Fluor 646 (SiR derivative)]
SiR-tag
  Kd: 2e-08 M
Variant 2
  Kd: 9.1e-08 M

## C[Si]1(C)c2cc(N3CCC3)ccc2C2(OC(=O)c3ccccc32)c2ccc(N3CCC3)cc21 [JF646]
[2]
  Absolute quantum yield Φ: 0.554 ± 0.011
  Extinction coefficient ε: 162 ± 12
[2]; buffer
  Brightness ε × Φ: 051 ± 1 M-1cm-1 × 103
  Extinction coefficient ε: 106 ± 24 M-1cm-1 × 103
[2]; buffer (unbound dye)
  Absolute quantum yield Φ: 0.477 ± 0.024
[2]; [5]
  Absolute quantum yield Φ: 0.660 ± 0.018
  Extinction coefficient ε: 152 ± 17 M-1cm-1 × 103

## CN(C)c1ccc2c(-c3ccccc3C(=O)[O-])c3ccc(N(C)C)cc3[o+]c2c1 [TMR, tetramethylrhodamine]
[2]; HaloTag7-bound
  Absolute quantum yield Φ: 0.542 ± 0.013
  Brightness ε × Φ: 55 ± 3 M-1cm-1 × 103
  Extinction coefficient ε: 101 ± 08 M-1cm-1 × 103
[2]; buffer
  Brightness ε × Φ: 39 ± 2 M-1cm-1 × 103
  Extinction coefficient ε: 089 ± 11 M-1cm-1 × 103
[2]; buffer (unbound dye)
  Absolute quantum yield Φ: 0.44 ± 0.01 and 0.439 ± 0.011
[2]; [5]
  Absolute quantum yield Φ: 0.73 ± 0.02 and 0.728 ± 0.019
  Brightness ε × Φ: 75 ± 1 M-1cm-1 × 103
  Extinction coefficient ε: 103 ± 21 M-1cm-1 × 103
BABP
  Kd: 34000 nM
SAV2435
  Kd: 17000 nM
cpRho-tag
  Kd: 6.8 nM

## CN(C)c1ccc2c(-c3cc(C(=O)NCCOCCOCCCCCCCl)ccc3C(=O)[O-])c3ccc(=[N+](C)C)cc-3oc2c1 [TMR-HTL, tetramethylrhodamine-6-carboxyl HaloTag Ligand]
Rho-tag [3]
  Kd: 9800 nM

## CN(C)c1ccc2c(-c3cc(C(=O)NCCOCCOCCCCCNS(C)(=O)=O)ccc3C(=O)[O-])c3ccc(=[N+](C)C)cc-3oc2c1 [TMR-S5 (xHTL), tetramethylrhodamine-6-carboxyl exchangeable HaloTag Ligand S5]
Rho-tag [4]
  Kd: 18.8 µM

## tetramethylrhodamine-6-carboxyl SNAP-tag ligand BG (benzylguanine) [TMR-BG]
Rho-tag [4]
  Kd: 0.4 µM

## tetramethylrhodamine-6-carboxyl SNAP-tag ligand CP (chloropyrimidine) [TMR-CP]
Rho-tag [4]
  Kd: 1.9 µM
